Assay results: patent US7928107B2, “Quinazolines useful as modulators of ion channels” (Vertex Pharmaceuticals Incorporated, priority 2004, dated 2011)

Biological target: NaV 1.8 channel (Homo sapiens, UniProt Q9Y5Y9)
Test: Activity against NaV 1.8 channel (optical membrane potential assay)
Format: cell-based
Method: Compounds of the invention are useful as antagonists of voltage-gated sodium ion channels. Antagonist properties of test compounds were assessed as follows. Cells expressing the NaV of interest were placed into microtiter plates. After an incubation period, the cells were stained with fluorescent dyes sensitive to the transmembrane potential. The test compounds were added to the microtiter plate. The cells were stimulated with either a chemical or electrical means to evoke a NaV dependent membrane potential change from unblocked channels, which was detected and measured with trans-membrane potential-sensitive dyes. Antagonists were detected as a decreased membrane potential response to the stimulus. The optical membrane potential assay utilized voltage-sensitive FRET sensors described by Gonzalez and Tsien (See, Gonzalez, J. E. and R. Y. Tsien (1995) “Voltage sensing by fluorescence resonance energy transfer in single cells” Biophys J 69(4): 1272-80, and Gonzalez, J. E. and R. Y. Tsien (1997) “Improved indicators of cell membrane potential that use fluorescence resonance energy transfer” Chem Biol 4(4): 269-77) in combination with instrumentation for measuring fluorescence changes such as the Voltage/Ion Probe Reader (VIPR®) (See, Gonzalez, J. E., K. Oades, et al. (1999) “Cell-based assays and instrumentation for screening ion-channel targets” Drug Discov Today 4(9): 431-439).
24 hours before the assay on VIPR, CHO cells endogenously expressing a NaV1.2 type voltage-gated NaV are seeded in 96-well poly-lysine coated plates at 60,000 cells per well. Other subtypes are performed in an analogous mode in a cell line expressing the NaV of interest. • 1) On the day of the assay, medium is aspirated and cells are washed twice with 225 μL of Bath Solution #2 (BS#2). • 2) A 15 uM CC2-DMPE solution is prepared by mixing 5 mM coumarin stock solution with 10% Pluronic 127 1:1 and then dissolving the mix in the appropriate volume of BS#2. • 3) After bath solution is removed from the 96-well plates, the cells are loaded with 80 μL of the CC2-DMPE solution. Plates are incubated in the dark for 30 minutes at room temperature. • 4) While the cells are being stained with coumarin, a […] solution in BS#2 is prepared. In addition to DiSBAC2(3), this solution should contain 0.75 mM ABSCl and […] (prepared from 10 mM EtOH stock, Sigma #V-5754). • 5) After 30 minutes, CC2-DMPE is removed and the cells are washed twice with 225 μL of BS#2. As before, the residual volume should be 40 μL. • 6) Upon removing the bath, the cells are loaded with 80 μL of the DiSBAC2(3) solution, after which test compound, dissolved in DMSO, is added to achieve the desired test concentration to each well from the drug addition plate and mixed thoroughly. The volume in the well should be roughly 121 μL. The cells are then incubated for 20-30 minutes. • 7) Once the incubation is complete, the cells are ready to be assayed on VIPR® with a sodium add back protocol. 120 μL of Bath solution #1 is added to stimulate the NaV dependent depolarization. […] was used as an antagonist positive control for block of the NaV channel.
Data are analyzed and reported as normalized ratios of background-subtracted emission intensities measured in the 460 nm and 580 nm channels. Background intensities are then subtracted from each assay channel. Background intensities are obtained by measuring the emission intensities during the same time periods from identically treated assay wells in which there are no cells. The response as a function of time is then reported as the ratios obtained using the following formula: […]
The data is further reduced by calculating the initial (Ri) and final (Rf) ratios. These are the average ratio values during part or all of the pre-stimulation period, and during sample points during the stimulation period. The response to the stimulus R=Rf/Ri is then calculated. […]

Chain of NaV 1.8 channel (Q9Y5Y9 whole entry): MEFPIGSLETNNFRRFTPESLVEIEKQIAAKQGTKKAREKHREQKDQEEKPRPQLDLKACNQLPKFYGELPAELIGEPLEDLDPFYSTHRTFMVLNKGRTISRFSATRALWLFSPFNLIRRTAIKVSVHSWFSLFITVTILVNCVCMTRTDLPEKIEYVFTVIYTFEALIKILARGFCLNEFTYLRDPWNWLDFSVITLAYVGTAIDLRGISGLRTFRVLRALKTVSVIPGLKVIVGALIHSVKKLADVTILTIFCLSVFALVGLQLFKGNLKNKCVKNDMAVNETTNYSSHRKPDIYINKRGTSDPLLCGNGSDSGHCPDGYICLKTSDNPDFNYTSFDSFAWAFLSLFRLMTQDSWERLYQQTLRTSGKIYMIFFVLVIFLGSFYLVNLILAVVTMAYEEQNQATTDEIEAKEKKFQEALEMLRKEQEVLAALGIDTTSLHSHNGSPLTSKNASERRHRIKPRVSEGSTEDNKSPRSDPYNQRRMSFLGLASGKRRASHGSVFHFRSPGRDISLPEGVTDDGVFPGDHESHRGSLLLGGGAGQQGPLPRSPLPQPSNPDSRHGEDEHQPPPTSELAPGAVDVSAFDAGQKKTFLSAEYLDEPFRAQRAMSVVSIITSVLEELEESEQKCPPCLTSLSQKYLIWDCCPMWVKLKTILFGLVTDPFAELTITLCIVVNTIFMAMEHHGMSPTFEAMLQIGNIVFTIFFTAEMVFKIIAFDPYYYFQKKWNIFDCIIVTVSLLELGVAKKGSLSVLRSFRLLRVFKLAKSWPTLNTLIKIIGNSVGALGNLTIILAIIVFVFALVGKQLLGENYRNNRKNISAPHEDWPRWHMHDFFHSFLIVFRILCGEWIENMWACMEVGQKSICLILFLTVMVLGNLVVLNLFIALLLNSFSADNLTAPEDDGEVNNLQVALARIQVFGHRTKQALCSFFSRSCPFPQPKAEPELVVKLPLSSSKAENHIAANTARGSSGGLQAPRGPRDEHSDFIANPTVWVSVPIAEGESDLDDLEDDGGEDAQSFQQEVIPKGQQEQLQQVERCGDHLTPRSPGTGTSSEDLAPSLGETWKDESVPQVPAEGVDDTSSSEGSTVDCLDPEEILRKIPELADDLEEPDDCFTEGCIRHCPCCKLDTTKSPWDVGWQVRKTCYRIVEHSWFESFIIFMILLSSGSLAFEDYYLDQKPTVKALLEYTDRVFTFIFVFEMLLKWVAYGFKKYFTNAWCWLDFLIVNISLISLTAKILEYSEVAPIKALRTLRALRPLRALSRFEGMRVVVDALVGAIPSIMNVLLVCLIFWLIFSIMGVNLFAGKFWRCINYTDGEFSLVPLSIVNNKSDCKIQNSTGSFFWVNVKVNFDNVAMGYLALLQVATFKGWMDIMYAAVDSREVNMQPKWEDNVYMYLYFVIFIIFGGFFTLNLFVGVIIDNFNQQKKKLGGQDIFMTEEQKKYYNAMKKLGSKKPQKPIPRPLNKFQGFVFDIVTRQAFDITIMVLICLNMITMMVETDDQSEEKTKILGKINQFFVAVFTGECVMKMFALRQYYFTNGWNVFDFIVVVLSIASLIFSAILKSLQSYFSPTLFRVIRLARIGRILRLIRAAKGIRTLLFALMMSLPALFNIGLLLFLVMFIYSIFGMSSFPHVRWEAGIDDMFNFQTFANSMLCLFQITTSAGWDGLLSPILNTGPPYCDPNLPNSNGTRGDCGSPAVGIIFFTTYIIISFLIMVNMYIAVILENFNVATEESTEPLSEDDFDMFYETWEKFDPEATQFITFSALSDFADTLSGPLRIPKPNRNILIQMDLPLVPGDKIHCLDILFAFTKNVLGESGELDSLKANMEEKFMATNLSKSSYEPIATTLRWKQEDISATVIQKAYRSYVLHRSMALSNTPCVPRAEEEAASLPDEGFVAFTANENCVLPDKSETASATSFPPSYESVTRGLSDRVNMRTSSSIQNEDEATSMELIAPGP

Structure (SMILES) | IC50 [µM]
CCC(C)(O)C(=O)N1CCN(c2nc(-c3ccccc3O)nc3ccccc23)CC1 (stereo not drawn) [Example 129, 2-Hydroxy-1-(4-(2-(2-hydroxyphenyl)quinazolin-4-yl)piperazin-1-yl)-2-methylbutan-1-one] | > 10
Cc1ccc2c(N3CCN(C(=O)OCc4cccnc4)CC3)nc(-c3ccccc3O)nc2c1 [Example 132, (Pyridin-3-yl)methyl 4-(2-(2-hydroxyphenyl)-7-methylquinazolin-4-yl)piperazine-1-carboxylate] | 2 to 10
CCCC(O)C(=O)N1CCN(c2nc(-c3ccccc3O)nc3cc(C)ccc23)CC1 (stereo not drawn) [Example 134, 2-Hydroxy-1-(4-(2-(2-hydroxyphenyl)-7-methylquinazolin-4-yl)piperazin-1-yl)pentan-1-one] | 2 to 10
Cc1ccc2c(N3CCN(C(=O)[C@H](O)CC(C)C)CC3)nc(-c3cc(F)ccc3O)nc2c1 [Example 136, (R)-1-(4-(2-(5-Fluoro-2-hydroxyphenyl)-7-methylquinazolin-4-yl)piperazin-1-yl)-2-hydroxy-4-methylpentan-1-one] | > 10
CC(C)(C)[C@H](O)C(=O)N1CCN(c2nc(-c3ccccc3O)nc3ccc(F)cc23)CC1 [Example 139, (S)-1-(4-(6-Fluoro-2-(2-hydroxyphenyl)quinazolin-4-yl)piperazin-1-yl)-2-hydroxy-3,3-dimethylbutan-1-one] | 2 to 10
O=C(OCc1cccc2c1OCO2)N1CCN(c2nc(-c3ccccc3O)nc3ccccc23)CC1 [Example 140, (Benzo[d][1,3]dioxol-7-yl)methyl 4-(2-(2-hydroxyphenyl)quinazolin-4-yl)piperazine-1-carboxylate] | > 10
Cc1ccc2c(N3CCN(C(=O)[C@@H](O)Cc4cnc[nH]4)CC3)nc(-c3ccccc3O)nc2c1 [Example 141, (S)-2-Hydroxy-1-(4-(2-(2-hydroxyphenyl)-7-methylquinazolin-4-yl)piperazin-1-yl)-3-(1H-imidazol-5-yl)propan-1-one] | > 10
CC(C)C[C@@H](O)C(=O)N1CCN(c2nc(-c3ccccc3O)nc3ccc(C#N)cc23)CC1 [Example 142, 4-[4-((R)-2-Hydroxy-4-methyl-pentanoyl)-piperazin-1-yl]-2-(2-hydroxy-phenyl)-quinazoline-6-carbonitrile] | 2 to 10
Cc1ccc2c(N3CCN(C(=O)[C@H](O)CC(=O)O)CC3)nc(-c3ccccc3O)nc2c1 [Example 145, (R)-3-Hydroxy-4-(4-(2-(2-hydroxyphenyl)-7-methylquinazolin-4-yl)piperazin-1-yl)-4-oxobutanoic acid] | > 10
Cc1ccc2c(N3CCN(C(=O)[C@H](O)CC(C)C)CC3)nc(-c3c(O)cccc3F)nc2c1 [Example 147, (R)-1-(4-(2-(2-Fluoro-6-hydroxyphenyl)-7-methylquinazolin-4-yl)piperazin-1-yl)-2-hydroxy-4-methylpentan-1-one] | 2 to 10
Cc1ccc2c(N3CCN(C(=O)O[C@@H]4CCOC4)[C@@H](CO)C3)nc(-c3ccccc3O)nc2c1 [Example 149, (2R)-(R)-Tetrahydrofuran-3-yl 2-(hydroxymethyl)-4-(2-(2-hydroxyphenyl)-7-methylquinazolin-4-yl)piperazine-1-carboxylate] | > 10
Cc1ccc2c(N3CCN(C(=O)[C@H](O)CC(C)C)CC3)nc(-c3c(C)cccc3O)nc2c1 [Example 150, (R)-2-Hydroxy-1-(4-(2-(2-hydroxy-6-methylphenyl)-7-methylquinazolin-4-yl)piperazin-1-yl)-4-methylpentan-1-one] | > 10
Cc1ccc2c(N3CCN(C(=O)OCc4ccncc4)CC3)nc(-c3ccccc3O)nc2c1 [Example 152, (Pyridin-4-yl)methyl 4-(2-(2-hydroxyphenyl)-7-methylquinazolin-4-yl)piperazine-1-carboxylate] | > 10
CSCCC(O)C(=O)N1CCN(c2nc(-c3ccccc3O)nc3cc(C)ccc23)CC1 (stereo not drawn) [Example 153, 2-Hydroxy-1-(4-(2-(2-hydroxyphenyl)-7-methylquinazolin-4-yl)piperazin-1-yl)-4-(methylthio)butan-1-one] | 2 to 10

Continued, values first:

IC50 [µM] | Structure (SMILES)
> 10 | Cc1ccc2c(N3CCN(C(=O)[C@H](O)Cc4ccccc4)CC3)nc(-c3ccccc3O)nc2c1 [Example 130, (R)-2-Hydroxy-1-{4-[2-(2-hydroxy-phenyl)-7-methyl-quinazolin-4-yl]-piperazin-1-yl}-3-phenylpropan-1-one]
> 10 | Cc1ccc2c(N3CCN(C(=O)[C@@H](O)Cc4ccccc4)CC3)nc(-c3ccccc3O)nc2c1 [Example 131, (S)-2-Hydroxy-1-{4-[2-(2-hydroxy-phenyl)-7-methyl-quinazolin-4-yl]-piperazin-1-yl}-3-phenylpropan-1-one]
2 to 10 | Cc1ccc2c(N3CCN(C(=O)CCc4ccccn4)CC3)nc(-c3ccccc3O)nc2c1 [Example 133, 1-(4-(2-(2-Hydroxyphenyl)-7-methylquinazolin-4-yl)piperazin-1-yl)-3-(pyridin-2-yl)propan-1-one]
< 2 | Cc1ccc2c(N3CCN(C(=O)[C@H](O)CC(C)(C)C)CC3)nc(-c3c(O)cccc3F)nc2c1 [Example 135, (R)-1-(4-(2-(2-Fluoro-6-hydroxyphenyl)-7-methylquinazolin-4-yl)piperazin-1-yl)-2-hydroxy-4,4-dimethylpentan-1-one]
2 to 10 | CC[C@H](O)C(=O)N1CCN(c2nc(-c3ccccc3O)nc3cc(C)ccc23)CC1 [Example 137, (S)-2-Hydroxy-1-(4-(2-(2-hydroxyphenyl)-7-methylquinazolin-4-yl)piperazin-1-yl)butan-1-one]
> 10 | Cc1ccc2c(N3CCN(C(=O)[C@@H](O)C(C)(C)C)CC3)nc(-c3c(O)cccc3F)nc2c1 [Example 138, (S)-1-(4-(2-(2-Fluoro-6-hydroxyphenyl)-7-methylquinazolin-4-yl)piperazin-1-yl)-2-hydroxy-3,3-dimethylbutan-1-one]
2 to 10 | CC(C)C[C@@H](O)C(=O)N1CCN(c2nc(-c3ccccc3O)nc3ccc(F)cc23)CC1 [Example 143, (R)-1-(4-(6-Fluoro-2-(2-hydroxyphenyl)quinazolin-4-yl)piperazin-1-yl)-2-hydroxy-4-methylpentan-1-one]
2 to 10 | Cc1ccc2c(N3CCN(C(=O)[C@@H](O)CC(C)C)CC3)nc(-c3ccccc3O)nc2c1 [Example 144, (S)-2-Hydroxy-1-(4-(2-(2-hydroxyphenyl)-7-methylquinazolin-4-yl)piperazin-1-yl)-4-methylpentan-1-one]
> 10 | CC(C)C[C@@H](O)C(=O)N1CCN(c2nc(-c3c(O)cccc3Cl)nc3ccccc23)CC1 [Example 146, (R)-1-(4-(2-(2-Chloro-6-hydroxyphenyl)quinazolin-4-yl)piperazin-1-yl)-2-hydroxy-4-methylpentan-1-one]
2 to 10 | O=C(O[C@@H]1CCOC1)N1CCN(c2nc(-c3ccccc3O)nc3ccc(F)cc23)CC1 [Example 148, (R)-Tetrahydrofuran-3-yl 4-(6-fluoro-2-(2-hydroxyphenyl)quinazolin-4-yl)piperazine-1-carboxylate]
> 10 | CC(=O)C[C@@H](O)C(=O)N1CCN(c2nc(-c3ccccc3O)nc3cc(C)ccc23)CC1 [Example 151, (R)-2-Hydroxy-1-(4-(2-(2-hydroxyphenyl)-7-methylquinazolin-4-yl)piperazin-1-yl)pentan-1,4-dione]
> 10 | Cc1ccc2c(N3CCN(C(=O)[C@H](O)CC(N)=O)CC3)nc(-c3ccccc3O)nc2c1 [Example 154, (R)-3-Hydroxy-4-(4-(2-(2-hydroxyphenyl)-7-methylquinazolin-4-yl)piperazin-1-yl)-4-oxobutanamide]
> 10 | Cc1ccc2c(N3CCN(C(=O)[C@H](O)CC(C)C)C[C@@H]3C(C)C)nc(-c3ccccc3O)nc2c1 [Example 155, (R)-2-Hydroxy-1-((S)-4-(2-(2-hydroxyphenyl)-7-methylquinazolin-4-yl)-3-isopropylpiperazin-1-yl)-4-methylpentan-1-one]
